{"source": "patent US20170273949A1", "about": "“AGENT FOR PREVENTING AND/OR TREATING OPHTHALMOLOGIC DISEASES” (MITSUBISHI TANABE PHARMA CORPORATION, priority 2014, published 2017)", "key": {"[1]": {"test_system": "human retinal microvascular endothelial cells (HRMECs)", "assay": "VEGF-induced cell growth of HRMECs (cell counting kit-8)", "type": "cell-based", "details": "edaravone 1, 10 or 100 μM added 1 hour before VEGF 10 ng/mL, 24 hours, control without VEGF = 100%, FIG. 2", "experimental": "Using CSC Complete Recombinant Medium, human retinal microvascular endothelial cells (HRMECs) were plated at a cell density of 2×10^3 cells/well on a 96-well plate. Twenty-four hours after plating, the medium was exchanged with a CSC medium containing 10% fetal bovine serum (FBS). Then, twenty-four hours after the medium exchange, edaravone was added in a final concentration of 1, 10 or 100 μM to an edaravone addition group. One hour after the addition of edaravone, to a vascular endothelial growth factor (VEGF) addition group, VEGF was added in a final concentration of 10 ng/mL. Twenty-four hours after the addition of VEGF, in order to remove the reagent and VEGF, the medium was exchanged again with a CSC medium containing 10% FBS. After completion of the medium exchange, cell counting kit-8 was added, and the absorbance at 450 nm was then measured (defined as “measurement value 1”). Three hours after the measurement of the absorbance, the second absorbance measurement was carried out (defined as “measurement value 2”). The measurement value 1 was subtracted from the measurement value 2, and the obtained value was then corrected, using a control group, to which VEGF had not been added, as 100%. The thus obtained value was defined as a growth rate. The cells were cultured under conditions of 37° C. and 5% CO2, except for the operations."}, "[2]": {"test_system": "mouse models induced to have choroidal neovascularization (CNV) by laser irradiation (CNV models)", "assay": "laser-induced choroidal neovascularization (CNV) mouse model, area of CNV", "type": "in vivo", "details": "mice; 3 mg/kg or 10 mg/kg edaravone into the caudal vein immediately after laser irradiation; choroidal flat mount 14 days after irradiation; FIG. 1A, 1B", "experimental": "In such CNV models, macrophages migrate as a result of provocation of inflammation by laser irradiation. Consequently, VEGF is generated, and new blood vessels are formed.\nA 10-fold dilution of a mixed anesthetic solution of ketamine and xylazine (7:1) was administered at a dose of 10 mL/kg into the femoral muscle of each mouse, and one eye was then irradiated with laser at 6 sites with equal intervals on the circumference of discus nervi optici (wave length: 647 nm, spot size: 50 μm, irradiation time: 100 msec, and laser output: 120 mW). Immediately after the laser irradiation, 3 mg/kg edaravone, 10 mg/kg edaravone, or 10 mL/kg normal saline was administered into the caudal vein of each mouse. Thereafter, fundus photography was carried out using a fundus camera. Fourteen days after the laser irradiation, a 10-fold dilution of Fluorescite (registered trademark) Injection Solution No. 1 was administered at a dose of 0.5 mL/kg into the caudal vein under the same anesthesia as described above, and fluorescein fundus photography was then carried out using a fundus camera. […] The expression of CNV was evaluated by choroidal flat mount. Using a confocal laser scanning microscope, the CNV was photographed, and the area of CNV was then measured. […]"}}}
{"smiles": "CC1=NN(c2ccccc2)C(=O)C1", "note": "[edaravone, 3-methyl-1-phenyl-2-pyrazolin-5-one]", "values": [{"measurement": "cell growth induced by VEGF (growth rate)", "setting": "[1]", "result": "suppressed"}, {"measurement": "CNV formation (area of CNV)", "setting": "[2]", "result": "inhibited"}]}
